The values that follow come from paper PMC13286573, “Exploration of precision coregulator TR-FRET identifies diverse signatures for LXR ligands relevant to discovery of nonlipogenic ABCA1 inducers” (eLife, 2026).

One data set relates to LXR. As to the kind of experiment: Corepressor (NCOR2, SMRT2) binding to LXR, CRT, statements across isoforms. In kind it is biochemical. Conditions: monoplex CRT, absence of coactivator.
Data set [1] relates to high-fat diet (HFD) mouse model. Set-up: method as in Lewandowski et al., 2021. To be noted: ref Lewandowski et al., 2021; cited from earlier work.
Data set [2] has as its target T1, LXRα (Homo sapiens, UniProt Q13133).
T1 sequence (Q13133 209-447 limits assumed): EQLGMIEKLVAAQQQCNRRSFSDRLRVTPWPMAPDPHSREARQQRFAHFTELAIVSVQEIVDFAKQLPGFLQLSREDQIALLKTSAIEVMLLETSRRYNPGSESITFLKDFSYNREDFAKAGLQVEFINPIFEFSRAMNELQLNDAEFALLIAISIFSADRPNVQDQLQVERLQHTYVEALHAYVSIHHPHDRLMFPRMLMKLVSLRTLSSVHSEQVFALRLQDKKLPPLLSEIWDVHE
Briefly: NCOR2 corepressor binding to LXRα, CRT. To be noted: for activity at 1 µM: ligand 1 µM, interpolated from concentration-response, normalized, heat map Figure 9A, read-out: NCOR2α, relative % activity at 1 μM. The arrangement: The CRT selectivity assay incorporates GST-tagged LXR-LBD; purchased Thermo Fisher Scientific PV4657. In kind it is biochemical.

In data set [3] the target is T2, LXRβ (Homo sapiens, UniProt P55055).
T2 sequence (P55055 222-460 limits assumed): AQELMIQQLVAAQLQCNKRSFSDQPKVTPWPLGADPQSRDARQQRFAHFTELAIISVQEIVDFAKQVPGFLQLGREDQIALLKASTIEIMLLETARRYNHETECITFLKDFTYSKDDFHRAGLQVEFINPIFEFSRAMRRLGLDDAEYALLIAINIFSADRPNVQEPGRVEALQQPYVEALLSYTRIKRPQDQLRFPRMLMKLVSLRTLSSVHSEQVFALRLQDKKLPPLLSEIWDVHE
As to the kind of experiment: NCOR2 corepressor binding to LXRβ, CRT. The arrangement: The CRT selectivity assay incorporates GST-tagged LXR-LBD; purchased Thermo Fisher Scientific PV4660. In kind it is biochemical. Conditions: for activity at 1 µM: ligand 1 µM, interpolated from concentration-response, normalized, heat map Figure 9A, read-out: NCOR2β, relative % activity at 1 μM.

Data set [4] concerns the target T1, LXRα. As to the kind of experiment: SMRT2 corepressor binding to LXRα, CRT. The data set is classed as biochemical. The arrangement: The CRT selectivity assay incorporates GST-tagged LXR-LBD; purchased Thermo Fisher Scientific PV4657. To be noted: for activity at 1 µM: ligand 1 µM, interpolated from concentration-response, normalized, heat map Figure 9A, read-out: SMRT2α, relative % activity at 1 μM.

Data set [5] has as its target T2, LXRβ. As to the kind of experiment: SMRT2 corepressor binding to LXRβ, CRT. In kind it is biochemical. The arrangement: The CRT selectivity assay incorporates GST-tagged LXR-LBD; purchased Thermo Fisher Scientific PV4660. Conditions: for activity at 1 µM: ligand 1 µM, interpolated from concentration-response, normalized, heat map Figure 9A, read-out: SMRT2β, relative % activity at 1 μM.

The test system of another data set is E3/4FAD mice. Set-up: method as in Velma et al., 2024. To be noted: ref Velma et al., 2024; cited from earlier work.
For data set [6], the target named is T1, LXRα. Briefly: SRC-1 coactivator recruitment to LXRα, coregulator TR-FRET (CRT). The data set is classed as biochemical. Set-up: The CRT selectivity assay incorporates GST-tagged LXR-LBD; purchased Thermo Fisher Scientific PV4657. To be noted: maximal response relative to T0 (100%). For orientation: TR-FRET usually uses a lanthanide donor and a delayed reading to cut background.

Another data set concerns Hamsters. The arrangement: method as in Quinet et al., 2009. Conditions: ref Quinet et al., 2009; cited from earlier work.
The test system of a further data set is primates. Set-up: method as in Quinet et al., 2009. Conditions: 50 mg/kg/day p.o., returned to baseline at day 7, ref Quinet et al., 2009; cited from earlier work.
A further data set has as its system participants. Set-up: method as in Katz et al., 2009. To be noted: all six participants on the highest 300 mg dose; ref Katz et al., 2009; cited from earlier work.
Another data set has as its target T3, RXRα (Homo sapiens, UniProt P19793).
T3 construct: the reductionist system of NR-LBD with short coregulator peptides as used in the present work; purchased Thermo Fisher Scientific PV4799
As to the kind of experiment: Coactivator D22 recruitment Lanthascreen RXRα. The data set is classed as biochemical. To be noted: normalized to SR11237.

Data set [7] has as its system sterol response element (SRE). Briefly: SRE-luc reporter assay in HepG2 cells. In kind it is cell-based, human. From the text:
Our phenotypic high-throughput screen (HTS) approach to identify nonlipogenic ABCA1 Inducers (NLAI) originally used counterscreening with a SREBP1c-luciferase reporter (linked to the SREBF1 gene promoter) in human hepatocarcinoma HepG2 cells ([Ben Aissa et al., 2021]). Unwanted lipogenesis is mediated by LXR agonists via direct transcriptional activation and indirectly by the effects of SREBP1c ([Schultz et al., 2000]; [Brown and Goldstein, 1997]). SREBP1c enhances transcription of genes required for synthesis of fatty acids and TG and as the dominant isoform in liver is associated most closely with lipogenesis and TG elevation ([Brown and Goldstein, 1997]). […] Binding of SREBP1c to the sterol response element (SRE) induces transcription of lipogenic genes associated with elevated TG. To better model the lipogenic axis in hepatocytes, we use HepG2 cells stably transfected with a nanoluciferase reporter downstream of a SRE promoter (SRE-luc), activation of which requires SREBP1c maturation.
HepG2 cells were cotransfected with SRE (LDLR)-NlucP SuperPiggyBac Transposon and a separate Transposase plasmid (System Biosciences). Cells were expanded for multiple passages followed by selection with puromycin (1 μg/ml). Stable cells constitutively express GFP allowed for FACS enrichment and/or cell cloning. Initially, stable pools were compared to low expressing and high expressing enriched pools. The optimal pool was selected based on assay performance (Z’) and was grown and maintained as above, with the addition of 1.0 μg/mL of puromycin biweekly.
Cells were split into flasks containing CS medium (EMEM supplemented with 10% charcoal stripped FBS (Gibco A52567-01)) and 1% P/S and grown at 37 °C /5% CO2 for 48 hr before plating. Cells were plated in 384-well, white clear tissue culture plates (Greiner 781098) and allowed to grow at 37 °C /5% CO2 for 24 hr before medium was aspirated and compound dilutions prepared in CS medium were added. Following a 24 hr incubation, the medium was aspirated, and cells were lysed/luminescence quantified using the Nano-Glo Luciferase Assay System (Promega N1130).
(In a reporter assay the amount or activity of a reporter protein is the signal.)

The test system of the next data set is mice. Set-up: method as in Kick et al., 2015; Kirchgessner et al., 2015. To be noted: highest dose 30 mg/kg qd, ref Kick et al., 2015, Kirchgessner et al.; cited from earlier work.

T3 sequence (P19793 227-458 limits assumed): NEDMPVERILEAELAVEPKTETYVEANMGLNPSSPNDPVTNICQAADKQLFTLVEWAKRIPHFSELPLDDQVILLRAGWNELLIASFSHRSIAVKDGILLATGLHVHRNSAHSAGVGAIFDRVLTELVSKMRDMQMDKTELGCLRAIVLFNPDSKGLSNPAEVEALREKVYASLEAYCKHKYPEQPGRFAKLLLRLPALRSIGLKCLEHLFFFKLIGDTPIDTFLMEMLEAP

Turning to `CCOC(=O)c1cccc(NC(=O)c2sc(Cl)cc2S(=O)(=O)N(C)c2ccc(OCC)c(OCC)c2)c1` [CL2-57, Ethyl3-(5-chloro-3-(N-(3,4-diethoxyphenyl)-N-methylsulfamoyl)thiophene-2-carboxamido) benzoate], in the data set on LXR, the “Corepressor (NCOR2, SMRT2) displacement or stabilization, across LXR isoforms” value (“Corepressor” for short) was “little or no ability to displace NCOR2 and SMRT2 corepressors from LXR”. In data set [1], the “Plasma and hepatic TG levels” value is “attenuated diet-induced increases in plasma and hepatic TG levels”. The activity at 1 µM on LXRα [2] amounted to 110%; at LXRβ [3], 107%; on LXRα [4], 100%; on LXRβ [5], 99.4%.
For `CCOC(=O)c1cc(Cl)cc(NC(=O)c2sc(Cl)cc2S(=O)(=O)N(C)c2ccc(OCC)c(OC)c2)c1` [CL3-3, Ethyl3-chloro-5-(5-chloro-3-(N-(4-ethoxy-3-methoxyphenyl)-N-methylsulfamoyl)thiophene-2-carboxamido)benzoate], the “Corepressor” value in the data set on LXR is “little or no ability to displace NCOR2 and SMRT2 corepressors from LXR”. Besides, the “ABCA1 expression, APOE lipidation, AD phenotypes and TG” value in the data set with E3/4FAD mice is “increased ABCA1 expression, enhanced APOE lipidation and reversed multiple AD phenotypes, without increasing TG”. Moreover, the “Efficacy profile for SRC-1 recruitment to LXRα” value at LXRα [6] is recorded as “partial agonist activity at LXRα”. The activity at 1 µM was 100% at LXRα [2], 104% at LXRβ [3], 87.9% on LXRα [4] and 88.6% on LXRβ [5].
With `Fc1ccc(-c2c3cccc(C(F)(F)F)c3nn2Cc2ccc(F)cc2Cl)cc1` [LXR-623], the “Corepressor” value with LXR was “little or no ability to displace NCOR2 and SMRT2 corepressors from LXR”. Further, in the data set with Hamsters, the “Plasma TG” value is given as “did not cause a dose-dependent increase in plasma TG”. In addition, the “Liver TG” value with primates was “significant increase in liver TG was observed but only at high dose”. Besides, in the data set with participants, the “Adverse effects in clinical trial” value is “neurologic or psychiatric adverse effects”.
With `CC1(C)CCC(C)(C)c2cc(C3(c4ccc(C(=O)O)cc4)OCCO3)ccc21` [SR11237], the “RXRα CRT response” value on RXRα is given as “RXRα-selective full agonists”.
In the case of `CC(C)(O)c1cn(-c2ccc(-c3cccc(S(C)(=O)=O)c3)cc2)c(C(C)(C)c2ccccc2Cl)n1` [XL652], the “SRE activation response/phenotype in HepG2” value in [7] is listed as “little or no activation of SRE at submicromolar concentrations”. For the same molecule, the “Efficacy of SRE activation at concentrations ≤1 µM” value in data set [7] (concentrations ≤1 µM) is given as 20–25 % of T0. In the data set with LXR, the “Corepressor” value is on record as “strongly stabilized the corepressor-bound conformation”. Moreover, the “Plasma TGs” value in the data set with mice is “elevated plasma TGs only at the highest dose”. The activity at 1 µM was found to be 100% on LXRα [2], 107% on LXRβ [3], 97% at LXRα [4] and 102% on LXRβ [5]. For the same molecule, at LXRα [2] (monoplex CRT, absence of SRC1), the “Effect on NCOR2 binding to LXRα” value is “weakly destabilized the NCOR2 complex with both LXR isoforms”. The “Effect on NCOR2 binding to LXRβ” value on LXRβ [3] (monoplex CRT, absence of SRC1) is “weakly destabilized the NCOR2 complex with both LXR isoforms”. The “Effect on SMRT2 binding to LXRα” value at LXRα [4] (monoplex CRT) is on record as “stabilization of SMRT2 corepressor binding to LXRα”. The “Effect on SMRT2 binding to LXRβ” value at LXRβ [5] (monoplex CRT) is listed as “did not perturb SMRT2 binding to LXRβ”.
